Data from US9789181B2, “PAN-DR binding polypeptides and uses thereof” (Epimmune Inc., priority 2009, dated 2017).
Where no end group is shown, it is not given here.

Assays:
purified HLA DRB1 *0101 = purified HLA DRB1 *0101 (Homo sapiens, UniProt P01903+P01911, A100R/D57E/F55L/F60I/F76Y/I96L/L162R/M171V/P40L/Q125E/R42F/V115G/Y59C); assay: IC50nM to purified HLA | DRB1 *0101
Description: (§1) Table printed on a drawing sheet, FIG. 1
(§2) Head of the field: IC50nM to purified HLA | DRB1 *0101
(§3) First copying reader's note: The comma is the decimal sign and the point a thousands separator (e.g. 21.831); some values are printed bold or italic and some SEQ ID NOs underlined, with no legend on the sheet.
(§4) Where the first naming reader finds the target: head: IC50nM to purified HLA | DRB1 *0101

purified HLA DRB4 *0101 = purified HLA DRB4 *0101 (Homo sapiens, UniProt P01903+P13762, G164S); assay: IC50nM to purified HLA | DRB4 *0101
Chain of purified HLA DRB4 *0101 (P01903 26-254 limits assumed): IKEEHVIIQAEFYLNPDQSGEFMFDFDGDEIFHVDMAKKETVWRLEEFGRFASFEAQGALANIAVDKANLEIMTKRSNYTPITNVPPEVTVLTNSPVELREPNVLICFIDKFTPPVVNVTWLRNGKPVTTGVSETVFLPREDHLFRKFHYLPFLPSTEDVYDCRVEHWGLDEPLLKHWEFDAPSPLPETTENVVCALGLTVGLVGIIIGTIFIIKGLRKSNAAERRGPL
Chain of purified HLA DRB4 *0101 (P13762 whole entry G164S): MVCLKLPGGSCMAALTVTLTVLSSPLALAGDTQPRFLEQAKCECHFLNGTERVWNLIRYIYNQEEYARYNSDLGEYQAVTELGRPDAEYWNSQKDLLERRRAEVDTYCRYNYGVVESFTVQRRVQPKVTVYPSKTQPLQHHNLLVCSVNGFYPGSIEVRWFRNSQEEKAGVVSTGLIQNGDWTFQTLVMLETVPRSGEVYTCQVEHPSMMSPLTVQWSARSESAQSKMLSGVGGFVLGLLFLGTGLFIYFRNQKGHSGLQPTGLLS
Description: as §1
(§5) Head of the field: IC50nM to purified HLA | DRB4 *0101
as §3
(§6) Where the first naming reader finds the target: head: IC50nM to purified HLA | DRB4 *0101

purified HLA DRB1 *0701 = purified HLA DRB1 *0701 (Homo sapiens, UniProt P01903+P01911, A100R/A102G/A103Q/D57E/D86V/E43K/F76Y/K127E/L162R/M171V/P40G/Q125H/Q99D/R33Q/R42Y/R54Q/S133A/S66F/T210M/V115G/Y107V/Y59L/Y89S); assay: IC50nM to purified HLA | DRB1 *0701
Description: as §1
Head of the field: IC50nM to purified HLA | DRB1 *0701
as §3
Where the first naming reader finds the target: head: IC50nM to purified HLA | DRB1 *0701

purified HLA DRB1 *0401 = purified HLA DRB1 *0401 (Homo sapiens, UniProt P01903+P01911, A100K/A169T/F76Y/I96L/K127E/L162R/M171V/N62H/P40V/Q125Y/R42H/S133A/S149N/S66Y/V115G/V209L/W38E); assay: IC50nM to purified HLA | DRB1 *0401
Description: as §1
Head of the field: IC50nM to purified HLA | DRB1 *0401
as §3
Where the first naming reader finds the target: head: IC50nM to purified HLA | DRB1 *0401

purified HLA DRB1 *0301 = purified HLA DRB1 *0301 (Homo sapiens, UniProt P01903+P01911, A100K/A102G/A103R/A169T/F55Y/I96L/K41T/L162R/M171V/P40S/Q125H/Q178H/Q39Y/R42S/S66N/T106N/T262R/W38E/Y61H); assay: IC50nM to purified HLA | DRB1 *0301
Chain of purified HLA DRB1 *0301 (P01903 26-254 limits assumed, other chains not shown): as the sequence (P01903 26-254 limits assumed) above
Description: as §1
(§7) Head of the field: IC50nM to purified HLA | DRB1 *0301
as §3
(§8) Where the first naming reader finds the target: head: IC50nM to purified HLA | DRB1 *0301

purified HLA DRB1 *1501 = purified HLA DRB1 *1501 (Homo sapiens, UniProt P01903+P01911); assay: IC50nM to purified HLA | DRB1 *1501
Description: as §1
(§9) Head of the field: IC50nM to purified HLA | DRB1 *1501
as §3
(§10) Where the first naming reader finds the target: head: IC50nM to purified HLA | DRB1 *1501

purified HLA DRB5 *0101 = purified HLA DRB5 *0101 (Homo sapiens, UniProt P01903+Q30154); assay: IC50nM to purified HLA | DRB5 *0101
Description: as §1
Head of the field: IC50nM to purified HLA | DRB5 *0101
as §3
Where the first naming reader finds the target: head: IC50nM to purified HLA | DRB5 *0101

purified HLA DRB1 *0802 = purified HLA DRB1 *0802 (Homo sapiens, UniProt P01903+P01911, A100R/A103L/A169T/F76Y/H45Y/I96F/K41T/L162R/M171V/P40S/Q125H/Q178H/Q39Y/Q99D/R218S/R42G/S66Y/V115G/W38E); assay: IC50nM to purified HLA | DRB1 *0802
Description: as §1
(§11) Head of the field: IC50nM to purified HLA | DRB1 *0802
as §3
(§12) Where the first naming reader finds the target: head: IC50nM to purified HLA | DRB1 *0802

purified HLA DRB1 *0405 = purified HLA DRB1 *0405 (Homo sapiens, UniProt P01903+P01911, A100R/A169T/D86S/F76Y/I96L/K127E/L162R/M171V/N62H/P40V/Q125Y/R42H/S133A/S149N/S66Y/V115G/V209L/W38E); assay: IC50nM to purified HLA | DRB1 *0405
Description: as §1
(§13) Head of the field: IC50nM to purified HLA | DRB1 *0405
as §3
(§14) Where the first naming reader finds the target: head: IC50nM to purified HLA | DRB1 *0405

purified HLA DRB1 *1302 = purified HLA DRB1 *1302 (Homo sapiens, UniProt P01903+P01911, A100E/A169T/K41T/L162R/M171V/P40S/Q125H/Q178H/Q39Y/Q99D/R42S/S66N/T262R/V115G/W38E/Y61H); assay: IC50nM to purified HLA | DRB1 *1302
Chain of purified HLA DRB1 *1302 (P01903 26-254 limits assumed, other chains not shown): as the sequence (P01903 26-254 limits assumed) above
Description: as §1
Head of the field: IC50nM to purified HLA | DRB1 *1302
as §3
Where the first naming reader finds the target: head: IC50nM to purified HLA | DRB1 *1302

purified HLA DRB1 *0404 = purified HLA DRB1 *0404 (Homo sapiens, UniProt P01903+P01911, A100R/A169T/F76Y/I96L/K127E/L162R/M171V/N62H/P40V/Q125Y/R42H/S133A/S149N/S66Y/V209L/W38E); assay: IC50nM to purified HLA | DRB1 *0404
Description: as §1
(§15) Head of the field: IC50nM to purified HLA | DRB1 *0404
as §3
(§16) Where the first naming reader finds the target: head: IC50nM to purified HLA | DRB1 *0404

HLA DRB1 *0101 = HLA DRB1 *0101 (Homo sapiens, UniProt P01903+P01911, A100R/D57E/F55L/F60I/F76Y/I96L/L162R/M171V/P40L/Q125E/R42F/V115G/Y59C); assay: IC50nM to purified HLA | DRB1 *0101
Description: (§17) Table printed on a drawing sheet, FIG. 1 (contd.)
as §2
(§18) First copying reader's note: Continued from the preceding sheet of FIG. 1; decimal commas are used, the analog names give the substituted residues and positions in PADRE, and some values are printed in italics or bold and some SEQ ID NOs bold and underlined without a legend on this sheet.
as §4

HLA DRB1 *0404 = HLA DRB1 *0404 (Homo sapiens, UniProt P01903+P01911, A100R/A169T/F76Y/I96L/K127E/L162R/M171V/N62H/P40V/Q125Y/R42H/S133A/S149N/S66Y/V209L/W38E); assay: IC50nM to purified HLA | DRB1 *0404
Description: as §17, §15, §18, §16

HLA DRB4 *0101 = HLA DRB4 *0101 (Homo sapiens, UniProt P01903+P13762, G164S); assay: IC50nM to purified HLA | DRB4 *0101
Chain of HLA DRB4 *0101 (P01903 26-254 limits assumed): as above
Chain of HLA DRB4 *0101 (P13762 whole entry G164S): as the sequence (P13762 whole entry G164S) above
Description: as §17, §5, §18, §6

HLA DRB1 *1501 = HLA DRB1 *1501 (Homo sapiens, UniProt P01903+P01911); assay: IC50nM to purified HLA | DRB1 *1501
Description: as §17, §9, §18, §10

HLA DRB1 *0405 = HLA DRB1 *0405 (Homo sapiens, UniProt P01903+P01911, A100R/A169T/D86S/F76Y/I96L/K127E/L162R/M171V/N62H/P40V/Q125Y/R42H/S133A/S149N/S66Y/V115G/V209L/W38E); assay: IC50nM to purified HLA | DRB1 *0405
Description: as §17, §13, §18, §14

HLA DRB1 *1101 = HLA DRB1 *1101 (Homo sapiens, UniProt P01903+P01911, A100R/A169T/A87E/I96F/K41T/L162R/M171V/P40S/Q125H/Q178H/Q39Y/Q99D/R42S/S66Y/T262R/V115G/W38E); assay: IC50nM to purified HLA | DRB1 *1101
Chain of HLA DRB1 *1101 (P01903 26-254 limits assumed, other chains not shown): as the sequence (P01903 26-254 limits assumed) above
Description: as §17
Head of the field: IC50nM to purified HLA | DRB1 *1101
as §18
Where the first naming reader finds the target: head: IC50nM to purified HLA | DRB1 *1101

HLA DRB1 *0802 = HLA DRB1 *0802 (Homo sapiens, UniProt P01903+P01911, A100R/A103L/A169T/F76Y/H45Y/I96F/K41T/L162R/M171V/P40S/Q125H/Q178H/Q39Y/Q99D/R218S/R42G/S66Y/V115G/W38E); assay: IC50nM to purified HLA | DRB1 *0802
Description: as §17, §11, §18, §12

HLA DRB1 *0901 = HLA DRB1 *0901 (Homo sapiens, UniProt P01903+P01911, A100R/A103E/D57H/D86V/F55Y/F60I/F76Y/I96F/K127E/L162R/M171V/P40D/Q125H/Q99R/R33Q/R42F/S133A/S66N/T210M/V115G/W38K/Y107V/Y59G/Y89S); assay: IC50nM to purified HLA | DRB1 *0901
Description: as §17
Head of the field: IC50nM to purified HLA | DRB1 *0901
as §18
Where the first naming reader finds the target: head: IC50nM to purified HLA | DRB1 *0901

HLA DRB1 *0301 = HLA DRB1 *0301 (Homo sapiens, UniProt P01903+P01911, A100K/A102G/A103R/A169T/F55Y/I96L/K41T/L162R/M171V/P40S/Q125H/Q178H/Q39Y/R42S/S66N/T106N/T262R/W38E/Y61H); assay: IC50nM to purified HLA | DRB1 *0301
Chain of HLA DRB1 *0301 (P01903 26-254 limits assumed, other chains not shown): as the sequence (P01903 26-254 limits assumed) above
Description: as §17, §7, §18, §8

Sequence	IC50 (purified HLA DRB1 *0101) [nM]	IC50 (purified HLA DRB4 *0101) [nM]	IC50 (purified HLA DRB1 *0701) [nM]	IC50 (purified HLA DRB1 *0401) [nM]	IC50 (purified HLA DRB1 *0301) [nM]	IC50 (purified HLA DRB1 *1501) [nM]	IC50 (purified HLA DRB5 *0101) [nM]	IC50 (purified HLA DRB1 *0802) [nM]	IC50 (purified HLA DRB1 *0405) [nM]	IC50 (purified HLA DRB1 *1302) [nM]	IC50 (purified HLA DRB1 *0404) [nM]	IC50 (HLA DRB1 *0101) [nM]	IC50 (HLA DRB1 *0404) [nM]	IC50 (HLA DRB4 *0101) [nM]	IC50 (HLA DRB1 *1501) [nM]	IC50 (HLA DRB1 *0405) [nM]	IC50 (HLA DRB1 *1101) [nM]	IC50 (HLA DRB1 *0802) [nM]	IC50 (HLA DRB1 *0901) [nM]	IC50 (HLA DRB1 *0301) [nM]
AAAWFVAAFTLHAAA [SEQ ID NO: 9]	5.3	115	69	3.1	139	38	30													
AAAYFVAAWTLHAAA [SEQ ID NO: 21]	3.7	279	55		119			9.7	6.9											
AAAHFVAAYTLHAAA [SEQ ID NO: 27]	3.8	526	94	3.4	214	4.2	30	11		1320	5.7									
AAAFFVAAWTLHAAA [SEQ ID NO: 12]	3.6	440	60	2.2	129	25		7.8			2.9									
AAAHFVAAWTLHAAA [SEQ ID NO: 26]	4.2	267	53					9.3		1190										
AAAYFVAANTLHAAA [SEQ ID NO: 24]	4.5	703	49	3.3	130	53				54	5.2									
AAAEFVAANTLHAAA [SEQ ID NO: 49]												9	6.9	878	137	44	70	37	87	
AAAFFVAAYTLHAAA [SEQ ID NO: 13]	4.4	805	54	1.7	151	4.8	11	7.4	19		2.3									
AAANFVAAWTLHAAA [SEQ ID NO: 51]												4.5		253	10	7.6	11	13		147
